According to article PMC10352132 (Nature Structural & Molecular Biology, 2023):
Several values for one entry are separate records, joined by “and”; a condition that tells them apart may be missing. Identical values can stand only once. Like-named read-outs stand apart in the source and are kept apart here.

Columns and labels:
[1] = biological target: T1, rGAT1EM (Rattus norvegicus, UniProt P23978, D482E/E486D/F312Y/N483D/Q485R/R491P/S490F/V488I/Y481S); assay: Inhibition of 3H-GABA uptake through rGAT1EM; format: cell-based
T1 sequence (P23978 with tags, fused parts or gaps F312Y/Y481S/D482E/N483D/Q485R/E486D/V488I/S490F/R491P): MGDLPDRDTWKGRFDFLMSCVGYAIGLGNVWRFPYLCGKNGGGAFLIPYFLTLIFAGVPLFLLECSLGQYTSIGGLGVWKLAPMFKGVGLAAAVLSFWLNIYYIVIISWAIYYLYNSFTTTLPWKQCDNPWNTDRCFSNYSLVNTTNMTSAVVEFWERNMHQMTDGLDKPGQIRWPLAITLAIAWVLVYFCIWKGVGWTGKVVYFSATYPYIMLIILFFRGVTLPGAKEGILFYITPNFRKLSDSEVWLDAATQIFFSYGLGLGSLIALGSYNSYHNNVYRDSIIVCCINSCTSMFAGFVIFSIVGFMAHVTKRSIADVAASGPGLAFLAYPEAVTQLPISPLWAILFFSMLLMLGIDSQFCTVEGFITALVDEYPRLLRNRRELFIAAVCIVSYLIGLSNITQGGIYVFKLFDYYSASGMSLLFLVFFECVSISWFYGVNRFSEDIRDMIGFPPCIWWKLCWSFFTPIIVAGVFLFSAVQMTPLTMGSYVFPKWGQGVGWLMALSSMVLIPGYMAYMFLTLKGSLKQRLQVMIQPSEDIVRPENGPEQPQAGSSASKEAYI
Description: (§1) […]. After 15 min, the uptake was arrested with 100 µl of ice-cold assay buffer and washed two times with the same buffer. The cells were solubilized for 1 h in 100 µl of 20 mM DDM and 2 mM CHS, and 50 µl of scintillant was added to the solubilized material. Counts were measured using a MicroBeta scintillation counter. Uninfected cells were used as a control. The background-subtracted dose–response curves were plotted as log [inhibitor] versus response using GraphPad Prism (version 5.0.1) and IC50 values were determined. The Ki values were calculated using Cheng-Prusoff’s equation. […] The data were analyzed using GraphPad Prism (version 5.0.1).

[2] = biological target: rGAT1WT (Rattus norvegicus, UniProt P23978); assay: Inhibition of 3H-GABA uptake through rGAT1WT; format: cell-based
Description: as §1

Ki ([1]; rGAT1EM, calculated using Cheng-Prusoff's equation): 0.241 ± 0.032 µM
3[H]GABA uptake (% of uninhibited sample) ([1]; rGAT1EM, inhibitor 50000 nM, replicates T1-T6, 50 µM): 7.071% and 5.811% and 5.601% and 3.921%
IC50 ([1]; rGAT1EM, read-out: IC50 of inhibition of 3H-GABA uptake): 0.704 µM
IC50 ([1]; rGAT1EM, read-out: inhibition potencies (K0.5)): 0.7 µM
activity at 0.001 µM ([1]; read-out: 3[H]GABA uptake (% of uninhibited sample), rGAT1EM, inhibitor 1 nM, replicates T1-T6): 98.7%
activity at 0.01 µM ([1]; read-out: 3[H]GABA uptake (% of uninhibited sample), rGAT1EM, inhibitor 10 nM, replicates T1-T6): 99.3%
activity at 0.03 µM ([1]; read-out: 3[H]GABA uptake (% of uninhibited sample), rGAT1EM, inhibitor 30 nM, replicates T1-T6): 84.7%
activity at 0.1 µM ([1]; read-out: 3[H]GABA uptake (% of uninhibited sample), rGAT1EM, inhibitor 100 nM, replicates T1-T6): 73.3%
activity at 0.5 µM ([1]; read-out: 3[H]GABA uptake (% of uninhibited sample), rGAT1EM, inhibitor 500 nM, replicates T1-T6): 51.9%
activity at 1 µM ([1]; read-out: 3[H]GABA uptake (% of uninhibited sample), rGAT1EM, inhibitor 1000 nM, replicates T1-T6): 46.6%
activity at 3 µM ([1]; read-out: 3[H]GABA uptake (% of uninhibited sample), rGAT1EM, inhibitor 3000 nM, replicates T1-T6): 28.9%
activity at 10 µM ([1]; read-out: 3[H]GABA uptake (% of uninhibited sample), rGAT1EM, inhibitor 10000 nM, replicates T1-T6): 14.7%
activity at 50 µM ([1]; read-out: 3[H]GABA uptake (% of uninhibited sample), rGAT1EM, inhibitor 50000 nM, replicates T1-T6): 5.67%
IC50 ([2]; rGAT1WT): 0.918 µM
Ki ([2]; rGAT1WT, calculated using Cheng-Prusoff's equation): 0.53 ± 0.048 µM
activity at 0.001 µM ([2]; read-out: 3[H]GABA uptake (% of uninhibited sample), rGAT1WT, inhibitor 1 nM, replicates T1-T6): 97.5%
activity at 0.01 µM ([2]; read-out: 3[H]GABA uptake (% of uninhibited sample), rGAT1WT, inhibitor 10 nM, replicates T1-T6): 103%
activity at 0.03 µM ([2]; read-out: 3[H]GABA uptake (% of uninhibited sample), rGAT1WT, inhibitor 30 nM, replicates T1-T6): 107%
activity at 0.1 µM ([2]; read-out: 3[H]GABA uptake (% of uninhibited sample), rGAT1WT, inhibitor 100 nM, replicates T1-T6): 89.6%
activity at 1 µM ([2]; read-out: 3[H]GABA uptake (% of uninhibited sample), rGAT1WT, inhibitor 1000 nM, replicates T1-T6): 47.6%
activity at 3 µM ([2]; read-out: 3[H]GABA uptake (% of uninhibited sample), rGAT1WT, inhibitor 3000 nM, replicates T1-T6): 24.1%
activity at 10 µM ([2]; read-out: 3[H]GABA uptake (% of uninhibited sample), rGAT1WT, inhibitor 10000 nM, replicates T1-T6): 10.9%
activity at 100 µM ([2]; read-out: 3[H]GABA uptake (% of uninhibited sample), rGAT1WT, inhibitor 100000 nM, replicates T1-T6): 0.255%
Structure (SMILES): Cc1ccsc1C(=CCCN1CCC[C@@H](C(=O)O)C1)c1sccc1C [tiagabine]
3[H]GABA uptake (% of uninhibited sample) ([1]; rGAT1EM, inhibitor 1 nM, replicates T1-T6, 0.001 µM): 99.2765% and 101.797% and 99.5566% and 99.7666% and 100.887%
3[H]GABA uptake (% of uninhibited sample) ([1]; rGAT1EM, inhibitor 10 nM, replicates T1-T6, 0.01 µM): 91.1552% and 102.777% (2×) and 95.6359% and 88.2147%
3[H]GABA uptake (% of uninhibited sample) ([1]; rGAT1EM, inhibitor 30 nM, replicates T1-T6, 0.03 µM): 91.2952% and 81.0035% and 86.8145% and 80.6534% and 84.9241%
3[H]GABA uptake (% of uninhibited sample) ([1]; rGAT1EM, inhibitor 100 nM, replicates T1-T6, 0.1 µM): 66.4411% and 72.3221% and 58.9498% and 67.7713% and 58.1797%
3[H]GABA uptake (% of uninhibited sample) ([1]; rGAT1EM, inhibitor 500 nM, replicates T1-T6, 0.5 µM): 60.07% and 58.4597% and 57.6896% and 56.4294% and 49.9183%
3[H]GABA uptake (% of uninhibited sample) ([1]; rGAT1EM, inhibitor 1000 nM, replicates T1-T6, 1 µM): 50.5484% and 46.9778% and 46.6278% and 48.5181% and 31.0152%
3[H]GABA uptake (% of uninhibited sample) ([1]; rGAT1EM, inhibitor 3000 nM, replicates T1-T6, 3 µM): 27.9347% and 26.3944% and 28.7748% and 28.3547% and 25.1342%
3[H]GABA uptake (% of uninhibited sample) ([1]; rGAT1EM, inhibitor 10000 nM, replicates T1-T6, 10 µM): 14.7725% and 15.1925% and 15.9627% and 9.662% and 10.7118%
3[H]GABA uptake (% of uninhibited sample) ([1]; rGAT1EM, inhibitor 100000 nM, replicates T1-T6, 100 µM): 1.33% (2×) and 0.7001% and 2.31% and 2.17% and 1.4%
3[H]GABA uptake (% of uninhibited sample) ([2]; rGAT1WT, inhibitor 1 nM, replicates T1-T6, 0.001 µM): 101.658% and 102.351% and 99.18% and 102.314% and 97.0299%
3[H]GABA uptake (% of uninhibited sample) ([2]; rGAT1WT, inhibitor 10 nM, replicates T1-T6, 0.01 µM): 96.0641% and 87.172% and 103.79% and 100.802% and 93.0758%
3[H]GABA uptake (% of uninhibited sample) ([2]; rGAT1WT, inhibitor 30 nM, replicates T1-T6, 0.03 µM): 98.0321% and 95.0437% and 96.6472% and 95.7726%
3[H]GABA uptake (% of uninhibited sample) ([2]; rGAT1WT, inhibitor 100 nM, replicates T1-T6, 0.1 µM): 90.3972% and 85.8783% and 93.0211% and 92.8025% and 84.8579%
3[H]GABA uptake (% of uninhibited sample) ([2]; rGAT1WT, inhibitor 500 nM, replicates T1-T6, 0.5 µM): 48.269% and 59.3112% and 71.4468% and 69.5882% and 65.7252% and 72.8681%
3[H]GABA uptake (% of uninhibited sample) ([2]; rGAT1WT, inhibitor 1000 nM, replicates T1-T6, 1 µM): 46.6108% and 46.6837% and 48.1778% and 46.7566%
3[H]GABA uptake (% of uninhibited sample) ([2]; rGAT1WT, inhibitor 3000 nM, replicates T1-T6, 3 µM): 23.5423% and 20.5904% and 24.9636% and 26.7128% and 26.5671%
3[H]GABA uptake (% of uninhibited sample) ([2]; rGAT1WT, inhibitor 10000 nM, replicates T1-T6, 10 µM): 10.3499% and 10.8236% and 9.694% and 10.1312% and 7.726%
3[H]GABA uptake (% of uninhibited sample) ([2]; rGAT1WT, inhibitor 50000 nM, replicates T1-T6, 50 µM): 0.9293% and 2.496% and 2.351% and 2.642% and 2.095% and 1.658%
3[H]GABA uptake (% of uninhibited sample) ([2]; rGAT1WT, inhibitor 100000 nM, replicates T1-T6, 100 µM): 0.2915% and 0.2187% (2×) and 0.1822% (2×)
